Source: patent publication US7084301B2 (Ranbaxy Laboratories Limited, priority 2003, dated 2006)

What was measured:
human α1A-adrenoceptors = target: T1, human α1A-adrenoceptors (Homo sapiens, UniProt P35348); test: Radioligand-receptor binding assay, human recombinant α1A-adrenoceptor, [3H]prazosin; conditions: human recombinant receptors in CHO cells, mean ± SEM; read-out: pKi α1A (converted)
T1 sequence (P35348 1-466): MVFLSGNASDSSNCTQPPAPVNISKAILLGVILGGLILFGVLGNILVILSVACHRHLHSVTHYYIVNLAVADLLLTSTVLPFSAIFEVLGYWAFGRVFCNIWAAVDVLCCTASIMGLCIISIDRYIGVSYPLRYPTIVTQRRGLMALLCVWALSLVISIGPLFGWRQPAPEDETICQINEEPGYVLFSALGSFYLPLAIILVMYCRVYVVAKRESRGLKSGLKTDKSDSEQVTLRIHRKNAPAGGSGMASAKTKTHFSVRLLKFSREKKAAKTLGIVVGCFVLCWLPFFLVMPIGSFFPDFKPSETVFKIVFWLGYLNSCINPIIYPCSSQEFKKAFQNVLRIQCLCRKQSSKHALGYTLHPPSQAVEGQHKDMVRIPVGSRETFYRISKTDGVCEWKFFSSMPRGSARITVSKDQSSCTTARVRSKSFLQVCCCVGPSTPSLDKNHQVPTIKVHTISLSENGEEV
Method: (§1) Chinese hamster ovary (CHO) cells which had been stably transfected with human α1A, α1B, or α1D-adrenoceptors (Keffel et al., Biochem. Biophys. Res. Commun., 2000, 272, 906–11) were cultured in an atmosphere of 5% CO2/95% air at 37° C. in F-12 HAM medium supplemented with 10% heat-inactivated fetal calf serum, 1 mM glutamine, 100 U/ml penicillin and 0.1 mg/ml streptomycin. Selection pressure was maintained by regular addition of geneticin to the culture medium.
(§2) Competitive radioligand binding to the cloned subtypes of […] was performed using [^3H]prazosin as the radioligand as described by Michel et al, Br. J. Pharmacol., 98, 883–889 (1989) with minor modifications. Experiments were performed in binding buffer consisting of 50 mM Tris, 10 mM MgCl2 and 0.5 mM EDTA at pH 7.5 in a total assay volume of 1000 μl. The protein content typically was 40–60 μg/assay. The mixtures were incubated at 25° C. for 45 minutes. Incubations were terminated by rapid vacuum filtration over GF/C filters followed by two washes of the filters each with 10 ml ice-cold incubation buffer. Non-specific binding was defined as binding in the presence of 10 μM phentolamine.
(§3) The IC50 & Kd were estimated by using the non-linear curve fitting program using G Pad Prism software. The value of inhibition constant Ki was calculated from competitive binding studies by using Cheng & Prusoff equation [Cheng & Prusoff, Biochem. Pharmacol., 22, 3099–3108 (1973)], Ki=IC50/(1+L/Kd), where L is the concentration of [^3H] prazosin used in the particular experiment. Kd of [^3H] prazosin was determined from saturation binding studies. The values were tabulated as mean±SEM of pKi values, where pKi is the −log of Ki value.

human α1B-adrenoceptors = target: T2, human α1B-adrenoceptors (Homo sapiens, UniProt P35368); test: Radioligand-receptor binding assay, human recombinant α1B-adrenoceptor, [3H]prazosin
T2 sequence (P35368 1-520): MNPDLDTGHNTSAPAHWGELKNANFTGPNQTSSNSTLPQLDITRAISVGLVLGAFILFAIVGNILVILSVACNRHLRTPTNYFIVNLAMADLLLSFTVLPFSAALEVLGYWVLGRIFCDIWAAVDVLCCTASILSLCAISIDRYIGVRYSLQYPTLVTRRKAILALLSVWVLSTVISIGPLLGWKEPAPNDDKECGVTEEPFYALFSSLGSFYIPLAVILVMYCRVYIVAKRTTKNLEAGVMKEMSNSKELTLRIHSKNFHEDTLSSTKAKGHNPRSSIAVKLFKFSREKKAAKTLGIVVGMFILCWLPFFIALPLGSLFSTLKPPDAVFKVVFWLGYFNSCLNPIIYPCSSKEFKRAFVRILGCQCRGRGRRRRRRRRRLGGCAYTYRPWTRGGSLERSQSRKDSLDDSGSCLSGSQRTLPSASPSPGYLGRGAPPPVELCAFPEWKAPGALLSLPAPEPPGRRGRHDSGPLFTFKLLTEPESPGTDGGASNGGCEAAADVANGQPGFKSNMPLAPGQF
Method: as §1, §2, §3

human α1D-adrenoceptors = target: T3, human α1D-adrenoceptors (Homo sapiens, UniProt P25100); test: Radioligand-receptor binding assay, human recombinant α1D-adrenoceptor, [3H]prazosin
T3 sequence (P25100 1-572): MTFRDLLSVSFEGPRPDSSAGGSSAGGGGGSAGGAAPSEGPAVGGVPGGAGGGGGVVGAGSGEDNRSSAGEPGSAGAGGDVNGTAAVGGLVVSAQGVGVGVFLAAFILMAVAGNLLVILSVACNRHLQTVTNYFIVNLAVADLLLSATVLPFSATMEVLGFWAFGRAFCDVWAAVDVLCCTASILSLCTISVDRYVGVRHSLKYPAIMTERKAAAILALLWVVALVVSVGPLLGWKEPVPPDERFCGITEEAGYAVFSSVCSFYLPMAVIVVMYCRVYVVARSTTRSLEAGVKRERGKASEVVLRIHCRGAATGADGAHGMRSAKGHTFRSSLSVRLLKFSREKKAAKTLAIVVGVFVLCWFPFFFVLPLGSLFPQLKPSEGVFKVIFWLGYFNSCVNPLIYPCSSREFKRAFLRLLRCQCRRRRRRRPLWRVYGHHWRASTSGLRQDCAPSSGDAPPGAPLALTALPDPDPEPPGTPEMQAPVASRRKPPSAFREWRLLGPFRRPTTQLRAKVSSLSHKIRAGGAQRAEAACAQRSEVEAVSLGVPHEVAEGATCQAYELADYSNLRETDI
Method: as §1, §2, §3

Work on CCOc1ccccc1OCCNC(C)Cc1ccc(O)c(S(N)(=O)=O)c1 (racemic) [Racemate] yielded a Ki (human α1A-adrenoceptors) of 0.0832 nM, a Ki (human α1B-adrenoceptors) of 1.1 nM and a Ki (human α1D-adrenoceptors) of 0.214 nM.
CCOc1ccccc1OCCN[C@@H](C)Cc1ccc(O)c(S(N)(=O)=O)c1 [(S)-isomer] was tested, and the Ki (human α1A-adrenoceptors) was 2.24 nM, the Ki (human α1B-adrenoceptors) was 21.9 nM and the Ki (human α1D-adrenoceptors) was 7.94 nM.
